Data as given in article PMC6297231 (Nature Communications, 2018).
Where two headings read alike, the source gives them in different places.

Experiments:
NCI-H929 = experiment: Cell viability assay; format: cell-based; settings: Homo sapiens, 24 h; NCI-H929 (MM); read-out: AZD5991 24h GI50
Protocol: (§1) Cells were plated at 3000 cells/well in 384-well white plates in corresponding cell growth media. […] Caspase-3/7 activation was subsequently determined using a Caspase-Glo 3/7 Reagent (Promega) and viability was assayed using the CellTiter-Glo Reagent (Promega) as described in manufacturer’s instructions. Dose–response curves for caspase-3/7 activation and viability were plotted and analyzed (including EC50 and GI50 determination) using GraphPad Prism.

Karpas620 = experiment: Cell viability assay; format: cell-based; settings: Karpas-620, 24 h; Karpas620 (MM); read-out: AZD5991 24h GI50
Protocol: as §1

AMO1 = experiment: Cell viability assay; format: cell-based; settings: Homo sapiens, 24 h; AMO1 (MM); read-out: AZD5991 24h GI50
Protocol: as §1

LP1 = experiment: Cell viability assay; format: cell-based; settings: Homo sapiens, LP-1, 24 h; LP1 (MM); read-out: AZD5991 24h GI50
Protocol: as §1

KMS11 = experiment: Cell viability assay; format: cell-based; settings: Homo sapiens, KMS-11, 24 h; KMS11 (MM); read-out: AZD5991 24h GI50
Protocol: as §1

Nomo1 = experiment: Cell viability assay; format: cell-based; settings: Homo sapiens, NOMO-1, 24 h; Nomo1 (AML); read-out: AZD5991 24h GI50
Protocol: as §1

MOLM13 [1] = experiment: Cell viability assay; format: cell-based; settings: Homo sapiens, MOLM-13, 24 h; MOLM13 (AML); read-out: AZD5991 24h GI50
Protocol: as §1

DOHH2 = experiment: Cell viability assay; format: cell-based; settings: Homo sapiens, DOHH-2, 24 h; DOHH2 (NHL); read-out: AZD5991 24h GI50
Protocol: as §1

HBL1 = experiment: Cell viability assay; format: cell-based; settings: 24 h; HBL1 (NHL); read-out: AZD5991 24h GI50
Protocol: as §1

Raji = experiment: Cell viability assay; format: cell-based; settings: Homo sapiens, 24 h; Raji (NHL); read-out: AZD5991 24h GI50
Protocol: as §1

Sudhl4 = experiment: Cell viability assay; format: cell-based; settings: Homo sapiens, SU-DHL-4, 24 h; Sudhl4 (NHL); read-out: AZD5991 24h GI50
Protocol: as §1

Sudhl6 = experiment: Cell viability assay; format: cell-based; settings: Homo sapiens, SU-DHL-6, 24 h; Sudhl6 (NHL); read-out: AZD5991 24h GI50
Protocol: as §1

U2932 = experiment: Cell viability assay; format: cell-based; settings: Homo sapiens, 24 h; U2932 (NHL); read-out: AZD5991 24h GI50
Protocol: as §1

ULA = experiment: Cell viability assay; format: cell-based; settings: 24 h; ULA (NHL); read-out: AZD5991 24h GI50
Protocol: as §1

WSUNHL = experiment: Cell viability assay; format: cell-based; settings: Homo sapiens, WSU-NHL, 24 h, read-out: AZD5991 24h GI50
Protocol: as §1

H1048 = experiment: Cell viability assay; format: cell-based; settings: Homo sapiens, NCI-H1048, 24 h; H1048 (Lung); read-out: AZD5991 24h GI50
Protocol: as §1

H1395 = experiment: Cell viability assay; format: cell-based; settings: Homo sapiens, NCI-H1395, 24 h; H1395 (Lung); read-out: AZD5991 24h GI50
Protocol: as §1

H2110 = experiment: Cell viability assay; format: cell-based; settings: NCI-H2110, 24 h; H2110 (Lung); read-out: AZD5991 24h GI50
Protocol: as §1

H2126 = experiment: Cell viability assay; format: cell-based; settings: Homo sapiens, NCI-H2126, 24 h; H2126 (Lung); read-out: AZD5991 24h GI50
Protocol: as §1

H358 = experiment: Cell viability assay; format: cell-based; settings: Homo sapiens, NCI-H358, 24 h; H358 (Lung); read-out: AZD5991 24h GI50
Protocol: as §1

H446 = experiment: Cell viability assay; format: cell-based; settings: Homo sapiens, NCI-H446, 24 h; H446 (Lung); read-out: AZD5991 24h GI50
Protocol: as §1

LK2 = experiment: Cell viability assay; format: cell-based; settings: Homo sapiens, LK-2, 24 h; LK2 (Lung); read-out: AZD5991 24h GI50
Protocol: as §1

LUDLU1 = experiment: Cell viability assay; format: cell-based; settings: LUDLU-1, 24 h; LUDLU1 (Lung); read-out: AZD5991 24h GI50
Protocol: as §1

HCC1187 = experiment: Cell viability assay; format: cell-based; settings: Homo sapiens, 24 h; HCC1187 (Breast); read-out: AZD5991 24h GI50
Protocol: as §1

G361 = experiment: Cell viability assay; format: cell-based; settings: Homo sapiens, G-361, 24 h; G361 (Skin); read-out: AZD5991 24h GI50
Protocol: as §1

MEWO = experiment: Cell viability assay; format: cell-based; settings: Homo sapiens, 24 h; MEWO (Skin); read-out: AZD5991 24h GI50
Protocol: as §1

647V = experiment: Cell viability assay; format: cell-based; settings: Homo sapiens, 24 h; 647V (Urology); read-out: AZD5991 24h GI50
Protocol: as §1

GIST T1 = experiment: Cell viability assay; format: cell-based; settings: Homo sapiens, GISTT1, 24 h; GIST T1 (GI); read-out: AZD5991 24h GI50
Protocol: as §1

MOLM13 [2] = experiment: Caspase-3/7 activation assay; format: cell-based; settings: Homo sapiens, MOLM-13, 6 h
Protocol: as §1

NB4 = experiment: Caspase-3/7 activation assay; format: cell-based; settings: Homo sapiens, NB-4, 6 h
Protocol: as §1

[3] = system: NCI-H23 cells with enhanced expression of Bcl-xL; experiment: Cell death in NCI-H23 with doxycycline-inducible Bcl-xL
Description: The lentiviral plasmid pTRIPZ-FLAG-BCL-XL was used for generation of NCI-H23 cells stably expressing doxycyline-inducible Bcl-xL. To produce viruses, the construct of interest was co-transfected into HEK293T cells with a plasmid encoding the packaging viruses (pPACKH1 Lentivector Packaging Kit, cat#LV500A1 SystemBioscience) using Lipofectamine transfection reagent (ThermoFisher Scientific). The lentiviruses were harvested, filtered, and used to infect target cells following standard procedures. Transduced cells were then subject to puromycin selection for 3 weeks before evaluation in apoptosis and cell proliferation assays.
(b) NCI-H23 cells stably expressing doxycycline-inducible Bcl-xL were treated with
determined using CellTiter Glo and GraphPad Prism for data analysis. Data shown is the average of 2 experiments.

## Cc1c2c(nn1C)CSCc1cc(n(C)n1)CSc1cc(c3ccccc3c1)OCCCc1c(C(=O)O)n(C)c3c-2c(Cl)ccc13 (atropisomer, axis not shown; (Ra)) [(Ra)-7]
NCI-H929
  GI50: 0.053 µM
Karpas620
  GI50: 0.087 µM
AMO1
  GI50: 0.129 µM
LP1
  GI50: 0.258 µM
KMS11
  GI50: 0.54 µM
Nomo1
  GI50: 0.021 µM
MOLM13 [1]
  GI50: 0.042 µM
DOHH2
  GI50: 0.065 µM
HBL1
  GI50: 8.32 µM
Raji
  GI50: 0.167 µM
Sudhl4
  GI50: 0.127 µM
Sudhl6
  GI50: 0.015 µM
U2932
  GI50: 15.5 µM
ULA
  GI50: 0.091 µM
WSUNHL
  GI50: 0.221 µM
H1048
  GI50: 4.25 µM
H1395
  GI50: 12 µM
H2110
  GI50: 0.14 µM
H2126
  GI50: 0.32 µM
H358
  GI50: 4.24 µM
H446
  GI50: 0.319 µM
LK2
  GI50: > 30 µM
LUDLU1
  GI50: 0.991 µM
HCC1187
  GI50: 0.233 µM
G361
  GI50: 0.404 µM
MEWO
  GI50: 7.67 µM
647V
  GI50: 22.3 µM
GIST T1
  GI50: > 30 µM
MOLM13 [2]; read-out: 6h caspase EC50, MOLM13, single agent
  EC50: 0.108 µM
MOLM13 [2]; read-out: AZD5991 6h EC50, MOLM13 (AML), caspase 3/7 activation
  EC50: 0.063 µM
NB4; read-out: 6h caspase EC50, NB4, single agent
  EC50: 0.201 µM
NB4; read-out: AZD5991 6h EC50, NB4 (AML), caspase 3/7 activation
  EC50: 0.347 µM
[3]
  induced cell death: resistance
